# Reference: PubChem BioAssay AID2767 (The Scripps Research Institute Molecular Screening Center, 2010)
# The source made the active and inactive calls. How the calls were made is not given here.
# Target: TEM-1 beta-lactamase (Escherichia coli) (UniProt Q932Y6)
# Assay: TEM-1 beta-lactamase inhibitor potency, late-stage follow-up, counter-screen for dual metallo-beta-lactamase inhibitor project, biochemical, epi-absorbance, IC50 (AID 2767)
# Details: nitrocefin absorbance
# Sequence of TEM-1 beta-lactamase (Escherichia coli) (Q932Y6 1-286): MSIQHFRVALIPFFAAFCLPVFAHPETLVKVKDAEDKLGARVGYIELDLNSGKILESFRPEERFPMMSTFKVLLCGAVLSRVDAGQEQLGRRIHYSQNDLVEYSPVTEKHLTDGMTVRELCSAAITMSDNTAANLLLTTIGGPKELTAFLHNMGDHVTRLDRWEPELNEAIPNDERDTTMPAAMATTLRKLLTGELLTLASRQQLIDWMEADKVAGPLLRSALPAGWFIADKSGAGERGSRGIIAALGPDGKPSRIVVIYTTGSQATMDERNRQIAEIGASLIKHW
row,SMILES,IC50
1,Cc1cc[c]([Hg+])cc1,> 59.6 µM (inactive)
2,[Hg+][c]1ccccc1,> 59.6 µM (inactive)
3,COc1cccc[c]1[Hg+],> 59.6 µM (inactive)
4,CC(=O)Nc1cc[c]([Hg+])cc1,> 59.6 µM (inactive)
5,O=C(O)c1ccc[c]([Hg+])c1,> 59.6 µM (inactive)
6,O=C(O)c1cc[c]([Hg][Cl])cc1,> 59.6 µM (inactive)
